The NIST ThermoML archive (doi:10.1021/acs.jced.5b00447)
± gives the expanded uncertainty stated by the source.

Experiments:
[1] = for surface tension liquid-gas: wilhelmi plate; for viscosity / mass density / speed of sound: 100 kPa, Liquid; for viscosity: Capillary tube (Ostwald / Ubbelohde) method; for mass density: Vibrating tube method; for speed of sound: Frequency=3 MHz, Sing-around technique in a fixed-path interferometer
[2] = xn = mol fraction of the nth substance listed; conditions: for surface tension liquid-gas: wilhelmi plate; for viscosity / speed of sound / mass density: 100 kPa, Liquid; for viscosity: Capillary tube (Ostwald / Ubbelohde) method; for speed of sound: Frequency=3 MHz, Sing-around technique in a fixed-path interferometer; for mass density: Vibrating tube method

| SMILES | surface tension liquid-gas ([1]; 293.15 K) [mN/m] | viscosity ([1]; 293.15 K) [mPa·s] | mass density ([1]; 293.15 K) [kg/m3] | surface tension liquid-gas ([1]; 298.15 K) [mN/m] | viscosity ([1]; 298.15 K) [mPa·s] | surface tension liquid-gas ([1]; 303.15 K) [mN/m] | viscosity ([1]; 303.15 K) [mPa·s] | mass density ([1]; 303.15 K) [kg/m3] | surface tension liquid-gas ([1]; 313.15 K) [mN/m] | viscosity ([1]; 313.15 K) [mPa·s] | speed of sound ([1]; 313.15 K) [m/s] | mass density ([1]; 313.15 K) [kg/m3] | surface tension liquid-gas ([1]; 323.15 K) [mN/m] | viscosity ([1]; 323.15 K) [mPa·s] | mass density ([1]; 323.15 K) [kg/m3] | speed of sound ([1]; 298.15 K) [m/s] | mass density ([1]; 298.15 K) [kg/m3] | other results |
| --- | --- | --- | --- | --- | --- | --- | --- | --- | --- | --- | --- | --- | --- | --- | --- | --- | --- | --- |
| O [water] | 72.6 ± 0.3 | 0.993 ± 0.082 | 998 ± 2 | 72.1 ± 0.3 | 0.891 ± 0.079 | 71.1 ± 0.3 | 0.797 ± 0.063 | 996 ± 2 | 69.2 ± 0.3 | 0.654 ± 0.05 | 1529.1 ± 1.6 | 992 ± 2 | 67.7 ± 0.3 | 0.547 ± 0.043 | 988 ± 2 |  |  |  |
| CN(C)CCN [2-dimethylamino-1-ethylamine] | 26.4 ± 0.4 | 0.988 ± 0.075 | 819 ± 2 | 26.1 ± 0.4 | 0.895 ± 0.068 | 25.8 ± 0.4 | 0.819 ± 0.054 | 810 ± 2 | 25.2 ± 0.4 | 0.693 ± 0.045 | 1239 ± 2.5 | 801 ± 2 | 24.5 ± 0.4 | 0.596 ± 0.039 | 791 ± 2 | 1300.8 ± 2.5 | 814.3 ± 2.1 | speed of sound ([1]; 293.15 K): 1319.6 ± 2.5 m/s; speed of sound ([1]; 303.15 K): 1279.3 ± 2.5 m/s; speed of sound ([1]; 323.15 K): 1199.3 ± 2.5 m/s |
| NCCO [2-aminoethan-1-ol] |  |  |  | 49.1 ± 0.4 | 18.74 ± 4.7 |  |  |  |  |  |  |  |  |  |  | 1719.2 ± 1.9 | 1012 ± 2 |  |
| CN(C)CCN [2-dimethylamino-1-ethylamine] + NCCO |  |  |  |  |  |  |  |  |  |  |  |  |  |  |  |  |  | surface tension liquid-gas ([2]; 293.15 K, x1 = 0.5): 32.4 ± 0.4 mN/m; viscosity ([2]; 293.15 K, x1 = 0.5): 10.74 ± 0.095 mPa·s; speed of sound ([2]; 293.15 K, x1 = 0.5): 1498.1 ± 2.2 m/s; mass density ([2]; 293.15 K, x1 = 0.5): 941 ± 2 kg/m3; surface tension liquid-gas ([2]; 303.15 K, x1 = 0.5): 31.6 ± 0.4 mN/m; viscosity ([2]; 303.15 K, x1 = 0.5): 7.169 ± 0.065 mPa·s; speed of sound ([2]; 303.15 K, x1 = 0.5): 1463.7 ± 2.2 m/s; mass density ([2]; 303.15 K, x1 = 0.5): 932 ± 2 kg/m3; surface tension liquid-gas ([2]; 313.15 K, x1 = 0.5): 30.9 ± 0.4 mN/m; viscosity ([2]; 313.15 K, x1 = 0.5): 5.066 ± 0.047 mPa·s; speed of sound ([2]; 313.15 K, x1 = 0.5): 1428.9 ± 2.2 m/s; mass density ([2]; 313.15 K, x1 = 0.5): 924 ± 2 kg/m3; surface tension liquid-gas ([2]; 323.15 K, x1 = 0.5): 30.3 ± 0.4 mN/m; viscosity ([2]; 323.15 K, x1 = 0.5): 3.517 ± 0.033 mPa·s; speed of sound ([2]; 323.15 K, x1 = 0.5): 1394.1 ± 2.2 m/s; mass density ([2]; 323.15 K, x1 = 0.5): 916 ± 2 kg/m3 |
| CN(C)CCO [2-(N,N-dimethylamino)ethanol] |  |  |  | 31.3 ± 0.4 | 3.69 ± 0.42 |  |  |  |  |  |  |  |  |  |  | 1335.9 ± 2.5 | 882.8 ± 2.1 |  |
| O [water] + CN(C)CCN |  |  |  |  |  |  |  |  |  |  |  |  |  |  |  |  |  | surface tension liquid-gas ([2]; 293.15 K, x2 = 0): 72.6 ± 0.6 mN/m; viscosity ([2]; 293.15 K, x2 = 0): 0.993 ± 0.006 mPa·s; mass density ([2]; 293.15 K, x2 = 0): 998 ± 2 kg/m3; surface tension liquid-gas ([2]; 303.15 K, x2 = 0): 71.1 ± 0.6 mN/m; viscosity ([2]; 303.15 K, x2 = 0): 0.797 ± 0.005 mPa·s; mass density ([2]; 303.15 K, x2 = 0): 996 ± 2 kg/m3; surface tension liquid-gas ([2]; 313.15 K, x2 = 0): 69.2 ± 0.6 mN/m; viscosity ([2]; 313.15 K, x2 = 0): 0.654 ± 0.005 mPa·s; speed of sound ([2]; 313.15 K, x2 = 0): 1529.1 ± 1.6 m/s; mass density ([2]; 313.15 K, x2 = 0): 992 ± 2 kg/m3; surface tension liquid-gas ([2]; 323.15 K, x2 = 0): 67.7 ± 0.6 mN/m; viscosity ([2]; 323.15 K, x2 = 0): 0.547 ± 0.004 mPa·s; mass density ([2]; 323.15 K, x2 = 0): 988 ± 2 kg/m3 |
